Data taken from ChEMBL document CHEMBL1201862, “PubChem BioAssay data set” (2004).
Calls of active or inactive are those of the source.

Legend:
[1] = molecular target: T1, Voltage-gated N-type calcium channel alpha-1B subunit/Amyloid beta A4 precursor protein-binding family A member 1 (Homo sapiens, UniProt Q00975+Q02410); type: protein assay
NS3 = NS3 (Hepatitis C virus, UniProt A3EZJ3); experiment: PubChem AID 2173; set-up: species or system Hepacivirus hominis
[2] = molecular target: T1, Voltage-gated N-type calcium channel alpha-1B subunit/Amyloid beta A4 precursor protein-binding family A member 1; type: protein assay; remark: listed apart in the source
Troponin, cardiac muscle = Troponin, cardiac muscle (Homo sapiens, UniProt P19429+P45379+P63316); experiment: compounds desensitizing RTF to calcium – biochemical, fluorescence, cardiac regulated thin filaments, triplicate IC50, dose response (AID 504742); type: protein-complex assay
[3] = molecular target: T1, Voltage-gated N-type calcium channel alpha-1B subunit/Amyloid beta A4 precursor protein-binding family A member 1; experiment: disruptors of Mint-PDZ/N-type channel peptide interaction – biochemical, HTRF, set 2, SAR follow-up (AID 434980); type: functional
[4] = molecular target: T2, Lysine-specific demethylase 4A (Homo sapiens, UniProt O75164); experiment: inhibition of JMJD2A H3K9me3 demethylation – biochemical, DELFIA europium, cherry-picked samples, selectivity assay for GASC-1 inhibitor project, dose response (AID 488840)
T2 sequence (O75164 whole entry): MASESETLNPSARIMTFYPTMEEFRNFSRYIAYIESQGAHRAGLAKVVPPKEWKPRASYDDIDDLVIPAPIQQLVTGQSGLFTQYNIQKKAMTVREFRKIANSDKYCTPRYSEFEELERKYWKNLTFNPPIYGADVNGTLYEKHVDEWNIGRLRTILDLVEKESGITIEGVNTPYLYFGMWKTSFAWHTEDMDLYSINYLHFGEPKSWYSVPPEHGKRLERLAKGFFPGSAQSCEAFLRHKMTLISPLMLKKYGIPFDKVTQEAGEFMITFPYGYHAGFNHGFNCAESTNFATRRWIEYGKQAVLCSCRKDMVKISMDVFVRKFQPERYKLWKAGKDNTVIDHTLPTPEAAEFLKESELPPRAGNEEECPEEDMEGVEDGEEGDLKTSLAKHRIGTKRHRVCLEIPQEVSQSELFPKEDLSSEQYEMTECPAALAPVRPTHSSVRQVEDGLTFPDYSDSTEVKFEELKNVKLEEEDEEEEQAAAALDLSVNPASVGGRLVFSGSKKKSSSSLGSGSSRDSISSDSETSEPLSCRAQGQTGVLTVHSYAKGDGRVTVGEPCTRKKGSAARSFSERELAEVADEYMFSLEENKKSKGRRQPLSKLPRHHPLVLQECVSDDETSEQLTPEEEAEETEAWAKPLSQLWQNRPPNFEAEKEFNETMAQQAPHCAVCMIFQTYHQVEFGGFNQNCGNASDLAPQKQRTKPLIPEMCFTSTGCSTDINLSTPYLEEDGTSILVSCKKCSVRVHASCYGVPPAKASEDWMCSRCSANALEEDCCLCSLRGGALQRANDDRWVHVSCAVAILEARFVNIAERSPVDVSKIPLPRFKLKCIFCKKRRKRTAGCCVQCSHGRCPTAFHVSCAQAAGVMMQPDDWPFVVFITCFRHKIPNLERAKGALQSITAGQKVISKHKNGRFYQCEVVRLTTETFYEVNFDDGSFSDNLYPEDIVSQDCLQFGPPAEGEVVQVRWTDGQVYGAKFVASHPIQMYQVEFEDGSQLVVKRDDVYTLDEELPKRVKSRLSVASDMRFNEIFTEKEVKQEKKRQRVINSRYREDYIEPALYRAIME

[5] = molecular target: Lysine-specific demethylase 4C (Homo sapiens, UniProt Q9H3R0); experiment: inhibition of JMJD2C H3K9me3 demethylation – biochemical, DELFIA europium, cherry-picked samples, dose response (AID 488835); type: functional
[6] = molecular target: T1, Voltage-gated N-type calcium channel alpha-1B subunit/Amyloid beta A4 precursor protein-binding family A member 1; experiment: disruptors of Mint-PDZ/N-type channel peptide interaction – biochemical, HTRF, SAR follow-up (AID 2489); type: functional
[7] = molecular target: T3, Glutathione-S-transferase (Schistosoma japonicum, UniProt Q26513); experiment: GST-antibody interaction or FRET quenching – biochemical, TR-FRET, artefact control for Vif-APOBEC3G degradation inhibitor project, dose response (AID 1117362); type: functional
T3 sequence (Q26513 whole entry): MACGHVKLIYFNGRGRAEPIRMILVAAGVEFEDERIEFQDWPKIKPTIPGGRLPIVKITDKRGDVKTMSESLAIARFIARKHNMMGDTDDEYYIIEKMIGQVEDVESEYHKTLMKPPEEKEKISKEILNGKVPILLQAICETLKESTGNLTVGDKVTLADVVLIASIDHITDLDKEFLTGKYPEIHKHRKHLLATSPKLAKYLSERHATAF

[8] = molecular target: T4, Dual specificity protein phosphatase 3 (Homo sapiens, UniProt P51452); experiment: VHR1 phosphatase inhibitors, primary screen, biochemical, absorbance, uHTS (AID 1654)
T4 sequence (P51452 whole entry, the tested form may be a part): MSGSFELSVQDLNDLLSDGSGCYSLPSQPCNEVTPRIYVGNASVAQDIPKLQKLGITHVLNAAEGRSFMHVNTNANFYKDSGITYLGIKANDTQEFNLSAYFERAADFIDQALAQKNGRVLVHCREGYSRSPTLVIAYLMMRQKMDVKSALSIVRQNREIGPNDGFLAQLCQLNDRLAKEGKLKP

[9] = molecular target: T5, RNA-binding protein pos-1 (Caenorhabditis elegans, UniProt G5EF15); experiment: disruptors of C. elegans POS-1 RNA interaction – biochemical, fluorescence polarization, dose response (AID 1964);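 note: purified POS-1 fused to maltose binding protein made in E. coli; potency of compounds blocking POS-1 binding to fluorescent RNA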
T5 sequence (G5EF15 whole entry): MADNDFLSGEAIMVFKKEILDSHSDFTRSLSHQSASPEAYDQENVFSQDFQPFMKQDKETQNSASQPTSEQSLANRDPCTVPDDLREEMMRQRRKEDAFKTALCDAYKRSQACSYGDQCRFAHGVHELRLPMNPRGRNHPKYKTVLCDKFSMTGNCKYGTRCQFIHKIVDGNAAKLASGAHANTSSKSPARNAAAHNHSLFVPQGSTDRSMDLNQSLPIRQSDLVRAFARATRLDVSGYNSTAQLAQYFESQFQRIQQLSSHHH

[10] = molecular target: T6, Zinc finger protein mex-5 (Caenorhabditis elegans, UniProt Q9XUB2); experiment: potency of MEX-5 RNA-binding blockers – biochemical, C. elegans, fluorescence polarization, dose response (AID 1960)
T6 sequence (Q9XUB2 whole entry): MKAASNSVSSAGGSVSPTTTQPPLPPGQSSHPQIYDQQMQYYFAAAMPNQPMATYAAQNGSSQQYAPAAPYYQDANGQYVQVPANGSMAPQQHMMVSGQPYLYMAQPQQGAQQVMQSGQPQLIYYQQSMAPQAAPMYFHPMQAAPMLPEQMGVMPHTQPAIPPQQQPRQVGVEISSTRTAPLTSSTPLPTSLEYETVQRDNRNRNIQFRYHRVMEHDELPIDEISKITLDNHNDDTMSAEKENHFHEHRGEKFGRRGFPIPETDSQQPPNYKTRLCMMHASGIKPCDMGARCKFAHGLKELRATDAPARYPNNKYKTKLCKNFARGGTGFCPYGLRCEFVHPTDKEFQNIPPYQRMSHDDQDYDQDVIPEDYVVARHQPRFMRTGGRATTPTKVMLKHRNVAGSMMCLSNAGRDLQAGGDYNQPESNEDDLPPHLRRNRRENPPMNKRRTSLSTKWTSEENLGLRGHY

[11] = molecular target: T4, Dual specificity protein phosphatase 3; experiment: VHR1 phosphatase inhibitors, biochemical (AID 1878)
[12] = molecular target: T7, Dual specificity protein phosphatase 6 (Rattus norvegicus, UniProt Q64346); experiment: inhibition of rat DUSP6 enzyme activity – biochemical, in vitro, primary screen (AID 425)
T7 sequence (Q64346 whole entry): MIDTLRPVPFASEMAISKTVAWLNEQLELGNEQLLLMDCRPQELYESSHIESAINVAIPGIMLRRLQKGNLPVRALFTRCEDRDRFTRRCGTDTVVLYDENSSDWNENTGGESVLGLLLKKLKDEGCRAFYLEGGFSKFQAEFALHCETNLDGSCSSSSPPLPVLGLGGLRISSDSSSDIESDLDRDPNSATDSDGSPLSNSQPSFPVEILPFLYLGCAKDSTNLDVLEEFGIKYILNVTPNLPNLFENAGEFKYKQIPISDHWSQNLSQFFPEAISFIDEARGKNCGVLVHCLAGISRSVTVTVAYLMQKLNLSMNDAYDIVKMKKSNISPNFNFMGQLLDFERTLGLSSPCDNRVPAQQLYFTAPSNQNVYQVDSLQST

[13] = molecular target: Induced myeloid leukemia cell differentiation protein Mcl-1 (Homo sapiens, UniProt Q07820); type: functional
[14] = molecular target: DNA (cytosine-5)-methyltransferase 1 (Homo sapiens, UniProt P26358); experiment: inhibition of DNA methylation by DNMT1 – biochemical, fluorescent molecular beacon, confirmation (AID 602386); type: functional
DNA (cytosine-5)-methyltransferase 1, sequence (P26358 whole entry): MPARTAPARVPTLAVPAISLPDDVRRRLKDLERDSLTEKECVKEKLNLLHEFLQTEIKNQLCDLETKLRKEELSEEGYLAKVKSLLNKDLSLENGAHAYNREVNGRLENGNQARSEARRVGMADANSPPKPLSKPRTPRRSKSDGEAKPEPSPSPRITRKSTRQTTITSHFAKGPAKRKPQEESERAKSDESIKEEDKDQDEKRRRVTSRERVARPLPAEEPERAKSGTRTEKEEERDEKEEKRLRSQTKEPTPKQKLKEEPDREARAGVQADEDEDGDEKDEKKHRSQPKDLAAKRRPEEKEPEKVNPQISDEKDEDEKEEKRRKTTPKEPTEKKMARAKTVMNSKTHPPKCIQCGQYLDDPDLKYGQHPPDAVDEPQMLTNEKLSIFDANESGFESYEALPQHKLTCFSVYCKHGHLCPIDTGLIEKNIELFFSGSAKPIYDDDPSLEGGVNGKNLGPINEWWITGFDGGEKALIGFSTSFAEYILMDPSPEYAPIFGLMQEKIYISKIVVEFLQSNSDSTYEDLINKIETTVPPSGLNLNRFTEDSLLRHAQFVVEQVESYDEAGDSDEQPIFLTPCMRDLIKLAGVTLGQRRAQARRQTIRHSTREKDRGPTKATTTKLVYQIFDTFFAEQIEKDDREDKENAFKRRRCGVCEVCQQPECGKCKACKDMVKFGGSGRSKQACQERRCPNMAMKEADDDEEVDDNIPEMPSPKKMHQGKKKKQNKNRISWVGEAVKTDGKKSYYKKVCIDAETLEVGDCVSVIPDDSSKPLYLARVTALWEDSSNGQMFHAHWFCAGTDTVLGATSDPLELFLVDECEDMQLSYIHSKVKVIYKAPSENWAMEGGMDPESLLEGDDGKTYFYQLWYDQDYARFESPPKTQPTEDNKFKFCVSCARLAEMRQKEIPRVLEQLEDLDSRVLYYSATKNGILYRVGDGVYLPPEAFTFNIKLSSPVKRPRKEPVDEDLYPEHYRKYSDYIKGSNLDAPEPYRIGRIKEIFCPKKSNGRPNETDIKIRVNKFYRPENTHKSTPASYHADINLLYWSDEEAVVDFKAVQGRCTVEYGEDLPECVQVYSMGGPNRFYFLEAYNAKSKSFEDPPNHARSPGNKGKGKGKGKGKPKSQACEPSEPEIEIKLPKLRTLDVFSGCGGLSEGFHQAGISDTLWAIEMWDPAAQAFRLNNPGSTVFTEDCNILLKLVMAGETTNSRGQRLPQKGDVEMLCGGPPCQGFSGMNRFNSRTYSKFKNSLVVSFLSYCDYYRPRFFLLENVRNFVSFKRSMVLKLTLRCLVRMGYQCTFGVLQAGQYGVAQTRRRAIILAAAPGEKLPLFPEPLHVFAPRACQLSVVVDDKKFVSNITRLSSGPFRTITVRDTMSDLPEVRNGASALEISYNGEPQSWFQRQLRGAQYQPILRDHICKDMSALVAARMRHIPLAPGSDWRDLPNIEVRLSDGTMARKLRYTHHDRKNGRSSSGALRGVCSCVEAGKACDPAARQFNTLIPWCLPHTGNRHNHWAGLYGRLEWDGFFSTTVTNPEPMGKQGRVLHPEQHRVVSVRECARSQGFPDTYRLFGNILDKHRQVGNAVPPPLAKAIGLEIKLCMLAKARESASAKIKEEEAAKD

Leucine aminopeptidase = molecular target: T8, Leucine aminopeptidase (Plasmodium falciparum 3D7, UniProt Q8IL11); experiment: P. falciparum M17LAP inhibitors, primary screen, biochemical, fluorogenic H-Leu-NHMec substrate, 1536-well (AID 1619); type: functional
T8 sequence (Q8IL11 whole entry): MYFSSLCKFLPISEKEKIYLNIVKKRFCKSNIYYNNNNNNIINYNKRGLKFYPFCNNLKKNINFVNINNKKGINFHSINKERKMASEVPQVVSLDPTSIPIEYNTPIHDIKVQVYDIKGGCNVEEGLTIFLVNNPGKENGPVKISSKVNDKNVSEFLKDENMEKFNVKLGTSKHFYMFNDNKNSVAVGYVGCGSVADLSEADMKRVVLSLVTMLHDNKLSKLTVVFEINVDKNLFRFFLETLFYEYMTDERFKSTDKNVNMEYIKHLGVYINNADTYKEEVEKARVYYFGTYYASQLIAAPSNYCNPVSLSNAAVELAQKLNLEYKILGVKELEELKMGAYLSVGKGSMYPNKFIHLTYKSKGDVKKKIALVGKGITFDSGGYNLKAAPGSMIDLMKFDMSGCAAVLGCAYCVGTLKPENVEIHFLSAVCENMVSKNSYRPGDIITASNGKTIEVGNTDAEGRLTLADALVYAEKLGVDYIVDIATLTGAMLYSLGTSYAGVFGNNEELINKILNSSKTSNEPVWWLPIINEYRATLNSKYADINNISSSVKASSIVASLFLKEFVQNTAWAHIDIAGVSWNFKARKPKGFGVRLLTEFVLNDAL

[15] = molecular target: Intestinal-type alkaline phosphatase (Homo sapiens, UniProt P09923); experiment: activation of human intestinal alkaline phosphatase – biochemical, dose response (AID 488873); type: functional
[16] = molecular target: Intestinal-type alkaline phosphatase (Mus musculus, UniProt P24822); experiment: mouse intestinal alkaline phosphatase activators, dose response, biochemical, luminescence, uHTS hits (AID 488783); type: functional
[17] = molecular target: T9, Alkaline phosphatase, tissue-nonspecific isozyme (Homo sapiens, UniProt P05186); experiment: activation of tissue-nonspecific alkaline phosphatase – biochemical, TNAP isozyme, mouse IAP uHTS hits, selectivity assay for mouse IAP activator project, dose response (AID 488880); type: functional
T9 sequence (P05186 whole entry): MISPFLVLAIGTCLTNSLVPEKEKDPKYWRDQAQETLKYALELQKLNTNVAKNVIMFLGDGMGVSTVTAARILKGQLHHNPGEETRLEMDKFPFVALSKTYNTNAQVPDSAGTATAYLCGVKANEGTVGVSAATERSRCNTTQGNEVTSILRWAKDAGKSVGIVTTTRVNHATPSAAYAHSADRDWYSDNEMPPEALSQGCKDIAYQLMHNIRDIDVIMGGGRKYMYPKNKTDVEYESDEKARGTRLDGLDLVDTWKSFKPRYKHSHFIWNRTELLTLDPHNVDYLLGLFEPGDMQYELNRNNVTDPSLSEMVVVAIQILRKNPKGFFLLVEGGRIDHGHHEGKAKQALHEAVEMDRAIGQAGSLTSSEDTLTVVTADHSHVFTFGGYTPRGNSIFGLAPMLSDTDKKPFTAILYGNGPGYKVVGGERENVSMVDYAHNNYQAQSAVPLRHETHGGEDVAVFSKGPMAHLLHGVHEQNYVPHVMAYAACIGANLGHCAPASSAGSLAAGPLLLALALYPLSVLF

T1 sequence (Q00975 whole entry): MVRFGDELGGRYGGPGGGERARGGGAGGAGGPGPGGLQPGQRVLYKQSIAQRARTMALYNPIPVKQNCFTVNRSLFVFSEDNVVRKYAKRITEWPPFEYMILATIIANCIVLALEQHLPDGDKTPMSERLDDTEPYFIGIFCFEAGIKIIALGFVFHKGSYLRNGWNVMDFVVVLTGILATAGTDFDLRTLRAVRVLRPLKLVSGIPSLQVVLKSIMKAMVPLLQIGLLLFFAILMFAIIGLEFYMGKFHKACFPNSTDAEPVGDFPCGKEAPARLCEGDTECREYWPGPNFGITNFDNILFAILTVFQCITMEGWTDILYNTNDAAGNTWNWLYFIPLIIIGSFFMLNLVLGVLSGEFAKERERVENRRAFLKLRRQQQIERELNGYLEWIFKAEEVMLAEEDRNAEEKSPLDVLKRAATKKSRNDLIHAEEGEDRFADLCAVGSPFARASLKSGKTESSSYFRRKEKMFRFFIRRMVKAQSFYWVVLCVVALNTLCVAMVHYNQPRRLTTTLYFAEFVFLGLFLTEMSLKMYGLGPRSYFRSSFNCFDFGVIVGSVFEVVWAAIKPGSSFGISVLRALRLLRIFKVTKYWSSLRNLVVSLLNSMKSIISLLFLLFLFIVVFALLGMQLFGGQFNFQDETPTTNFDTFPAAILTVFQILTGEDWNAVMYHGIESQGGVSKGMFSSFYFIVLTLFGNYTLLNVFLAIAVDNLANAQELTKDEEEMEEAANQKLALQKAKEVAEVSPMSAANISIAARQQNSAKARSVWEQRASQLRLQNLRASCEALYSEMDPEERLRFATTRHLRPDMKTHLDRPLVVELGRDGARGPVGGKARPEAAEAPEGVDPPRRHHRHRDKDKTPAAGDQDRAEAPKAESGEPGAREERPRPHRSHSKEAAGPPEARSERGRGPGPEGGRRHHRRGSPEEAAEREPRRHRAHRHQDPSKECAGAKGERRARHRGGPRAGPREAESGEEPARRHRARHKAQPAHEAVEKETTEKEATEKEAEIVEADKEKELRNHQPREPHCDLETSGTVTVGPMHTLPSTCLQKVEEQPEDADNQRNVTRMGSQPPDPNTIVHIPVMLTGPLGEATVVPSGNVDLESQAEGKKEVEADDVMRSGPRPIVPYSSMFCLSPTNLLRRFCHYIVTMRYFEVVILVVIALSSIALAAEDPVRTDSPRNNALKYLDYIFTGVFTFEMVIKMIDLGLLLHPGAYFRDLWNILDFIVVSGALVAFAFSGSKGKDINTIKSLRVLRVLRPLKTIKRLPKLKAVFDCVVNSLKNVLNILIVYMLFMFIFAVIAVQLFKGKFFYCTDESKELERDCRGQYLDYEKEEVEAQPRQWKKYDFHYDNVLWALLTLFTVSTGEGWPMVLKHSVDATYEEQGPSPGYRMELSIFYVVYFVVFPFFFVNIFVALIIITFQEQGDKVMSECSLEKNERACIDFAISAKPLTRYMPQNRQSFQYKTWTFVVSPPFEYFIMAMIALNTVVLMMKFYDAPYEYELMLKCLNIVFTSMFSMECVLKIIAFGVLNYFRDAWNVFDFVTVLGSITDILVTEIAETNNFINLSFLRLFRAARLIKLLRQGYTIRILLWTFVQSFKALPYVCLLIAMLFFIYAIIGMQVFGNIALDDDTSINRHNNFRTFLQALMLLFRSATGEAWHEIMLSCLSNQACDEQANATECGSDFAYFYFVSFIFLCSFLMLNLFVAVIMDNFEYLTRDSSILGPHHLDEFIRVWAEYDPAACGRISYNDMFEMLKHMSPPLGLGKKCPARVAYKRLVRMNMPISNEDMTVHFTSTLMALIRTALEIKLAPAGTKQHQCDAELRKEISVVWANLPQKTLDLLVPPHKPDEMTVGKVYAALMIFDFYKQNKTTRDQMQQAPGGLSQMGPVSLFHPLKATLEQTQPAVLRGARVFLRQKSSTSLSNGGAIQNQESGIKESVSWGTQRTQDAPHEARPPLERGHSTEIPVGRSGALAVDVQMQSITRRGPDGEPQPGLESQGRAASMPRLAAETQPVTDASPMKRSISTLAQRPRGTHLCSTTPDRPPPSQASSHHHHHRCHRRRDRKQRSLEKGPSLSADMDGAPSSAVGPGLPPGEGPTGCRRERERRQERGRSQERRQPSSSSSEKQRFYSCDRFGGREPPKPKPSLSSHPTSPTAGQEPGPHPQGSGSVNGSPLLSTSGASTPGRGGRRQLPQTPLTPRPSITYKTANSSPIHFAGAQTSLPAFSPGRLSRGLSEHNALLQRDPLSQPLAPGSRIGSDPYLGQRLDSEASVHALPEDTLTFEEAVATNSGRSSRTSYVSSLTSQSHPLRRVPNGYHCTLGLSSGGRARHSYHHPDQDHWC
T1 sequence (Q02410 whole entry): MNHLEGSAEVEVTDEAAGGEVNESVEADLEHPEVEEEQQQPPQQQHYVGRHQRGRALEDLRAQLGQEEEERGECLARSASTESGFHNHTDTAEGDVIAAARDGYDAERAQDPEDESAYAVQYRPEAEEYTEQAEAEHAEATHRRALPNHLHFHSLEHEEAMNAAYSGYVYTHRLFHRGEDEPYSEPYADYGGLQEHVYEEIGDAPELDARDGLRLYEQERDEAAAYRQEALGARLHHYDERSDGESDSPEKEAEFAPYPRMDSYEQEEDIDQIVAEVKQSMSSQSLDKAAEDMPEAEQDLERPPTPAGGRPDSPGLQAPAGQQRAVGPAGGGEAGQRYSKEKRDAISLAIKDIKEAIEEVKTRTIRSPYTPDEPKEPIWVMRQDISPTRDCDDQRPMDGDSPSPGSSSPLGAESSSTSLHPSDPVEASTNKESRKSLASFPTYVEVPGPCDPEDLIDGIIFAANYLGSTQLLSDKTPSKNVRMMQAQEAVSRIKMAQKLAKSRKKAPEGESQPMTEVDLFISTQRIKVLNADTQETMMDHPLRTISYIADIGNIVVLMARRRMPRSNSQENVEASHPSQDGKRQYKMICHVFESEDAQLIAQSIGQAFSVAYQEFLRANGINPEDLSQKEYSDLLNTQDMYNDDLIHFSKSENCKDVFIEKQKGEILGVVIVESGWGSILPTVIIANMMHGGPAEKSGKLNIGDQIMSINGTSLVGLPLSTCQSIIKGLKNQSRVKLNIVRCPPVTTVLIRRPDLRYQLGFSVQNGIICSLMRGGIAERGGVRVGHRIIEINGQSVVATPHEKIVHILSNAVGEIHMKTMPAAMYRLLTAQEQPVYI

SMILES	IC50 [1]	IC50 (NS3)	IC50 [2]	IC50 (Troponin, cardiac muscle)	IC50 [3]	AC50 [4]	AC50 [5]	IC50 [6]	IC50 [7]	IC50 [8]	EC50 [9]	EC50 [10]	IC50 [11]	IC50 [12]	IC50 [13]	IC50 [14]	IC50 (Leucine aminopeptidase)	EC50 [15]	EC50 [16]	EC50 [17]
Nc1c(C(=O)NC2CC2)sc2nc3c(c(-c4ccco4)c12)CC/C3=C/c1ccco1	13.1 µM (active)	5.48 µM (active)	3.99 µM (active)	> 71.5 µM (inactive)	1.04 µM (active)	6.07 µM (active)	4.71 µM (active)	17.2 µM (active)	54 µM (active)											
Cc1ccc(NC(=O)CN2C(=O)S/C(=C\c3cccn3-c3cccc(C(=O)O)c3)C2=O)c(C)c1										3.25 µM (active)	> 300 µM (not active)	> 300 µM (not active)	1.89 µM (active)	7.9 µM (active)	> 54 µM (active)	9.17 µM (active)				
COc1ccc(S(=O)(=O)Nc2ccc(O)c(Sc3nnc[nH]3)c2)cc1											10.4 µM (active)	8.48 µM (active)					25 µM (active)	79.6 µM (active)	63.4 µM (active)	62.8 µM (active)
